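At the GI50, growth is halved. TGI denotes the concentration required for complete inhibition of growth.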
How the values were obtained:
Experiment in all cases: NCI anticancer screen, dose series, 384-well format
[1] = system: 786-0 renal
[2] = system: A498 renal
[3] = system: A549 NSCLC
[4] = system: ACHN renal
[5] = system: BT-549 breast
[6] = system: CAKI-1 renal
[7] = system: CCRF-CEM leukemia
[8] = system: COLO 205 colon
[9] = system: DU-145 prostate
[10] = system: EKVX NSCLC
[11] = system: HCC-2998 colon
[12] = system: HCT-116 colon
[13] = system: HCT-15 colon
[14] = system: HL-60(TB) leukemia
[15] = system: HOP-62 NSCLC
[16] = system: HOP-92 NSCLC
[17] = system: HS 578T breast
[18] = system: HT29 colon
[19] = system: IGROV1 ovarian
[20] = system: K-562 leukemia
[21] = system: KM12 colon
[22] = system: LOX IMVI melanoma
[23] = system: M14 melanoma
[24] = system: MALME-3M melanoma
[25] = system: MCF7 breast
[26] = system: MDA-MB-231 breast
[27] = system: MDA-MB-435 melanoma
[28] = system: MDA-MB-468 breast
[29] = system: MOLT-4 leukemia
[30] = system: NCI-H226 lung
[31] = system: NCI-H23 lung
[32] = system: NCI-H322M lung
[33] = system: NCI-H460 NSCLC
[34] = system: NCI-H522 lung
[35] = system: NCI/ADR-RES ovarian
[36] = system: OVCAR-3 ovarian
[37] = system: OVCAR-4 ovarian
[38] = system: OVCAR-5 ovarian
[39] = system: OVCAR-8 ovarian
[40] = system: PC-3 prostate
[41] = system: RPMI-8226 leukemia
[42] = system: RXF 393 renal
[43] = system: SF-268 CNS
[44] = system: SF-295 CNS
[45] = system: SF-539 CNS
[46] = system: SK-MEL-2 melanoma
[47] = system: SK-MEL-28 melanoma
[48] = system: SK-MEL-5 melanoma
[49] = system: SK-OV-3 ovarian
[50] = system: SN12C renal
[51] = system: SNB-19 CNS
[52] = system: SNB-75 CNS
[53] = system: SR leukemia
[54] = system: SW-620 colon
[55] = system: T-47D breast
[56] = system: TK-10 renal
[57] = system: U251 glioblastoma
[58] = system: UACC-257 melanoma
[59] = system: UACC-62 melanoma
[60] = system: UO-31 renal

Cc1cc2cc(Oc3ccnc(Nc4cccc(CS(=O)(=O)NCCN(C)C)c4)n3)ccc2[nH]1
GI50 [1]: 3.36 µM | TGI [1]: 11.9 µM | GI50 [2]: 3.08 µM | TGI [2]: 11.1 µM | GI50 [3]: 7.13 µM | TGI [3]: 19.4 µM | GI50 [4]: 6.45 µM | TGI [4]: 19 µM | GI50 [5]: 2.19 µM | TGI [5]: 7.26 µM | GI50 [6]: 3.61 µM | TGI [6]: 13.9 µM | GI50 [7]: 1.96 µM | TGI [7]: 3.65 µM | GI50 [8]: 4.4 µM | TGI [8]: 10.2 µM | GI50 [9]: 8.4 µM | TGI [9]: 20.8 µM | GI50 [10]: 5.04 µM | TGI [10]: 16.7 µM | GI50 [11]: 2.02 µM | TGI [11]: 3.98 µM | GI50 [12]: 3.29 µM | TGI [12]: 11.8 µM | GI50 [13]: 5.47 µM | TGI [13]: 16.7 µM | GI50 [14]: 2.45 µM | TGI [14]: 5.63 µM | GI50 [15]: 7.38 µM | TGI [15]: 20.2 µM | GI50 [16]: 2.51 µM | TGI [16]: 7.51 µM | GI50 [17]: 1.69 µM | TGI [17]: 5.72 µM | GI50 [18]: 2.4 µM | TGI [18]: 6.03 µM | GI50 [19]: 3.05 µM | TGI [19]: 9.84 µM | GI50 [20]: 1.27 µM | TGI [20]: 2.59 µM | GI50 [21]: 0.736 µM | TGI [21]: 12.2 µM | GI50 [22]: 1.93 µM | TGI [22]: 4.2 µM | GI50 [23]: 3.38 µM | TGI [23]: 7.81 µM | GI50 [24]: 1.84 µM | TGI [24]: 3.34 µM | GI50 [25]: 3.48 µM | TGI [25]: 12.7 µM | GI50 [26]: 6.73 µM | TGI [26]: 19.1 µM | GI50 [27]: 7.5 µM | TGI [27]: 19.6 µM | GI50 [28]: 3.19 µM | TGI [28]: 7.85 µM | GI50 [29]: 1.8 µM | TGI [29]: 3.24 µM | GI50 [30]: 1.95 µM | TGI [30]: 12.5 µM | GI50 [31]: 2.51 µM | TGI [31]: 8.7 µM | GI50 [32]: 10.7 µM | TGI [32]: 23.2 µM | GI50 [33]: 2.62 µM | TGI [33]: 6.54 µM | GI50 [34]: 2.47 µM | TGI [34]: 7.78 µM | GI50 [35]: 15.3 µM | TGI [35]: 28.8 µM | GI50 [36]: 6.2 µM | TGI [36]: 18 µM | GI50 [37]: 12 µM | TGI [37]: 24.4 µM | GI50 [38]: 3.81 µM | TGI [38]: 13.1 µM | GI50 [39]: 9.99 µM | TGI [39]: 22.1 µM | GI50 [40]: 4.19 µM | TGI [40]: 14.9 µM | GI50 [41]: 3.29 µM | TGI [41]: 11.4 µM | GI50 [42]: 1.83 µM | TGI [42]: 4.32 µM | GI50 [43]: 3.93 µM | TGI [43]: 14.1 µM | GI50 [44]: 8.49 µM | TGI [44]: 21.1 µM | GI50 [45]: 2.04 µM | TGI [45]: 6.29 µM | GI50 [46]: 2.64 µM | TGI [46]: 6.28 µM | GI50 [47]: 4.58 µM | TGI [47]: 12.4 µM | GI50 [48]: 1.74 µM | TGI [48]: 3.16 µM | GI50 [49]: 8.13 µM | TGI [49]: 20.8 µM | GI50 [50]: 3.66 µM | TGI [50]: 13.2 µM | GI50 [51]: 8.83 µM | TGI [51]: 21.2 µM | GI50 [52]: 1.55 µM | TGI [52]: 3.81 µM | GI50 [53]: 1.38 µM | TGI [53]: 2.69 µM | GI50 [54]: 11.1 µM | TGI [54]: 23.3 µM | GI50 [55]: 7.08 µM | TGI [55]: 19.2 µM | GI50 [56]: 8.76 µM | TGI [56]: 21.2 µM | GI50 [57]: 3.56 µM | TGI [57]: 14.5 µM | GI50 [58]: 1.84 µM | TGI [58]: 3.26 µM | GI50 [59]: 2.78 µM | TGI [59]: 7.45 µM | GI50 [60]: 10.6 µM | TGI [60]: 22.5 µM

Source: PubChem BioAssay (NCI)
